Assay results as given in paper PMC12147183, “Lacritin cleavage-potentiated targeting of iron - respiratory reciprocity promotes bacterial death” (The Journal of Biological Chemistry, 2025).
Peptide text beside a SMILES is read from it.

Columns and labels:
OprF = biological target: T1, OprF (Pseudomonas aeruginosa, UniProt P13794); assay: Affinity pulldown/tandem mass spectrometry of PA14 lysate; assay type: binding, Pseudomonas aeruginosa PA14; conditions: 500 mM KCl eluate, n-octyl-β-D-glucopyranoside lysate, 4 °C
T1 construct: endogenous in cells; host or cells: P. aeruginosa PA14 overnight culture, n-octyl-β-D-glucopyranoside lysate
T1 sequence (P13794 25-350): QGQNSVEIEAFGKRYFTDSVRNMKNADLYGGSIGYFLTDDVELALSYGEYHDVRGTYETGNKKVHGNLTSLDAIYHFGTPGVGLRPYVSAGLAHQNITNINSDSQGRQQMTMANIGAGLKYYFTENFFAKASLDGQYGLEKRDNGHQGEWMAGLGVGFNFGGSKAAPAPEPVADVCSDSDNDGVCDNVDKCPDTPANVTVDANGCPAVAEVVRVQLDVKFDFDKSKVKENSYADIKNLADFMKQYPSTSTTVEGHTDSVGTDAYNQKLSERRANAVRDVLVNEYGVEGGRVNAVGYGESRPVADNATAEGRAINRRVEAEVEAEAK
Protocol: (§1) For generation of N-104 and negative control C-95 affinity columns, 2 mg of Cys(N)-N-104 or Cys(N)-C-95 in 2 ml of 50 mM Tris (pH 8.5), 5 mM EDTA coupling buffer were incubated with an equal volume of suspended SulfoLink Coupling Resin with mixing for 3 h at room temperature. Columns were subsequently washed with 3 ml of coupling buffer followed by 2 ml of freshly prepared 50 mM L-cysteine for 2 h at room temperature for quenching and then washed with 10 ml of 1 M NaCl prior to use or storage in 0.05% sodium azide at 4 °C. Coupling efficiency was determined using fluorescence from N-104's penultimate C-terminal tryptophan as 0.65 ± 0.04 μmole per ml of resin.
(§2) Screening for PA14 proteins with N-104 affinity columns was initiated from pelleted 2.5 L overnight cultures that were washed with ice-cold 10 mM Na2HPO4, 1.8 mM KH2PO4, 2.7 mM KCl, 137 mM NaCl (pH 7.2) and lysed by sonication in 25 ml of 50 mM Tris (pH 7.5), 1 mM MgCl2, 200 mM n-octyl-β-D-glucopyranoside with protease inhibitors. Sonication involved five cycles of 15 s with 45 s rest on ice followed by vortexing on ice for 30 min before being rocked end-over-end overnight at 4 °C. After centrifugation, the supernatant was subjected to end-over-end mixing with a 3-ml pre-column of Pierce Agarose followed by equal division by protein concentration for end-over-end incubation with 1 ml N-104 or C-95 columns at 4 °C. […]

PA14 transcriptome = assay: RNAseq of N-104 treated PA14; assay type: cell-based, Pseudomonas aeruginosa; conditions: 20 μM N-104 versus N-80/C-25, 45 min at 35 °C, 5 × 10^8 cfu/ml
Protocol: For RNA extraction and sequencing of P. aeruginosa, we used diethylpyrocarbonate (DEPC) treated Eppendorf tubes (except for those used for synthetic peptide incubation). An aliquot of PA14 overnight culture grown for 3.5 to 4.0 h in LB broth to OD600 = 0.5 (5.0 × 10^8 cells) was gently pelleted (12,000g, 30 s), resuspended in 0.5 ml of 1 mM Na2HPO4, 0.18 mM KH2PO4, 0.27 mM KCl, 13.7 mM NaCl (pH 7.2) and incubated with five or 20 μM N-104, or 20 μM N-80/C-25 for 45 min at 35 °C or left untreated. After pelleting (12,000g, 5 min), cells were resuspended in 0.5 ml of TE buffer supplemented with 1 ml of RNA-protect Bacteria Reagent with 5 s of vortexing prior to incubation for 5 min at room temperature, pelleting (5000g, 10 min), and lysis initiated in 200 μl of 15 mg/ml lysozyme together with 20 μl of 2.5 mg/ml proteinase K, both in TE buffer. […] Library construction and sequencing were performed by UVA's Genome Analysis and Technology Core involving mRNA enrichment via the NEBNext rRNA Depletion Kit (Bacteria), and transcriptome sequencing on a Next Seq 500 Mid Output platform, with 150-bp paired-end reads. The range of raw reads for each sample varied from 8 to 10 million, thus ensuring an optimal depth of sequencing that was analyzed by UVA's Bioinformatics Core facility.

YaiW = assay: Affinity pulldown/tandem mass spectrometry of PA14 lysate; assay type: binding, Pseudomonas aeruginosa PA14; conditions: 500 mM KCl eluate, n-octyl-β-D-glucopyranoside lysate, 4 °C
Protocol: as §1, §2

Compound | binding of outer membrane OprF to immobilized peptide (OprF) | effect on PA14 respiratory gene expression (PA14 transcriptome) | affinity of outer membrane YaiW for immobilized peptide (YaiW)
C[C@H](NC(=O)CNC(=O)[C@@H](NC(=O)[C@H](CO)NC(=O)[C@H](CC(=O)O)NC(=O)[C@H](CO)NC(=O)[C@H](CO)NC(=O)[C@H](C)NC(=O)[C@H](CC(=O)O)NC(=O)[C@@H](N)CCC(=O)O)[C@@H](C)O)C(=O)N[C@@H](CC(=O)O)C(=O)N1CCC[C@H]1C(=O)N[C@@H](C)C(=O)N[C@@H](CCC(N)=O)C(=O)N[C@@H](CCC(=O)O)C(=O)N[C@@H](C)C(=O)NCC(=O)N[C@H](C(=O)N[C@@H](CO)C(=O)N[C@@H](CCCCN)C(=O)N1CCC[C@H]1C(=O)N[C@@H](CC(N)=O)C(=O)N[C@@H](CCC(=O)O)C(=O)N[C@@H](CCC(=O)O)C(N)=O)[C@@H](C)O [C-95, reference compound] (H-EDASSDSTGADPAQEAGTSKPNEE-NH2) | binds OprF | – | –
CC(=O)N[C@@H](C)C(=O)N[C@@H](CCC(N)=O)C(=O)N[C@@H](CCCCN)C(=O)N[C@@H](CC(C)C)C(=O)N[C@@H](CC(C)C)C(=O)N[C@@H](CCCCN)C(=O)N[C@@H](CCCCN)C(=O)N[C@@H](Cc1ccccc1)C(=O)N[C@@H](CO)C(=O)N[C@@H](CC(C)C)C(=O)N[C@@H](CC(C)C)C(=O)N[C@@H](CCCCN)C(=O)N1CCC[C@H]1C(=O)N[C@@H](Cc1c[nH]c2ccccc12)C(=O)N[C@@H](C)C(=O)O [N-104] (Ac-AQKLLKKFSLLKPWA-OH) | – | promotes the expression of genes regulating anaerobic respiration while largely suppressing those involved in aerobic respiration | selective affinity
